Results on 16 compounds are retold here after ChEMBL document CHEMBL1133131, “Discovery of an orally bioavailable alkyl oxadiazole beta3 adrenergic receptor agonist” (Bioorg Med Chem Lett, 2000).

The target in data set [1] is Beta-2 adrenergic receptor (Homo sapiens, UniProt P07550). Nature of the data set: Binding affinity towards Beta-2 adrenergic receptor prepared from CHO cells expressing the cloned human receptor in the presence of [125I]iodocyanopindolol. The data set is classed as cell-based.
In data set [2] the target is T1, Beta-3 adrenergic receptor (Homo sapiens, UniProt P13945). As to the kind of experiment: Agonist activity as increasedn cAMP production in Chinese hamster ovary (CHO)cells expressing human beta-3 adrenergic receptor. The data set is classed as functional. (cAMP levels reflect the balance of adenylyl cyclase and phosphodiesterase activity.)
Target sequence in this assay (P13945 whole entry): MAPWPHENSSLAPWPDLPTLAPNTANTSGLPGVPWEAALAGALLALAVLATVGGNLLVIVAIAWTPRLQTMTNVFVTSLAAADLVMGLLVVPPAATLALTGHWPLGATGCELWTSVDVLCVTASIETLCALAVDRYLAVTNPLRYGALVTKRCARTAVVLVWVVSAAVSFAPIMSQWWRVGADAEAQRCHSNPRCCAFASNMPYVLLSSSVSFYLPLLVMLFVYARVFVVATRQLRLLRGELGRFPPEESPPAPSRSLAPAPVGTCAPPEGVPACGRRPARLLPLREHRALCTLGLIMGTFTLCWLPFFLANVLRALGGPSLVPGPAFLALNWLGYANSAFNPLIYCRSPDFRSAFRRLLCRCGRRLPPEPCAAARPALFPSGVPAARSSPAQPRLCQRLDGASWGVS
The target in data set [3] is Beta-1 adrenergic receptor (Homo sapiens, UniProt P08588). As to the kind of experiment: Binding affinity towards cloned human Beta-1 adrenergic receptor prepared from CHO cells in the presence of [125I]iodocyanopindolol. The data set is classed as cell-based.
Data set [4] addresses T1, Beta-3 adrenergic receptor. Nature of the data set: Adenylyl cyclase activation as percent maximal isoproterenol stimulation of CHO cells expressing beta-3 receptor. The class given is functional, cell-based.
Target sequence in this assay (P13945 whole entry, looked up): as the sequence (P13945 whole entry) above
Data set [5] can be described thus: Half life in rats. The class given is ADME, organism-based. The settings on record: rat, in vivo.
Data set [6] can be described thus: Oral bioavailability of perorally administered compound (10 mg/kg) was tested in dogs. The class given is ADME, organism-based, Canis lupus familiaris. The settings on record: dog, in vivo.
Data set [7] relates to Monkey. As to the kind of experiment: The compound was tested for the percent increase in heart rate at the dose level of 10 mg/kg; No significant alteration. The settings on record: Cercopithecidae. The data set is classed as functional, organism-based. Also on record: dose 10 mg/kg.
Data set [8] is described as follows: Oral bioavailability of intravenously administered compound (3 mg/kg) was tested in rats. The following applies: rat, in vivo, intravenous. The class given is ADME, organism-based.
Data set [9] deals with Monkey. As to the kind of experiment: The compound was evaluated for dose- dependent elevation of plasma glycerol in anesthetized rhesus. The class given is functional. The following applies: Cercopithecidae, in Macaca mulatta.
Data set [10] in a line: Half life in dog. The settings on record: in vivo. The class given is ADME, organism-based, Canis lupus familiaris.

Molecules are shown by their SMILES. pEC50, pIC50: −log10 of the molar value. The source made the active and inactive calls. The calls are words filed in the database; no cut-off is given here.

Chain of Beta-2 adrenergic receptor (P07550 whole entry): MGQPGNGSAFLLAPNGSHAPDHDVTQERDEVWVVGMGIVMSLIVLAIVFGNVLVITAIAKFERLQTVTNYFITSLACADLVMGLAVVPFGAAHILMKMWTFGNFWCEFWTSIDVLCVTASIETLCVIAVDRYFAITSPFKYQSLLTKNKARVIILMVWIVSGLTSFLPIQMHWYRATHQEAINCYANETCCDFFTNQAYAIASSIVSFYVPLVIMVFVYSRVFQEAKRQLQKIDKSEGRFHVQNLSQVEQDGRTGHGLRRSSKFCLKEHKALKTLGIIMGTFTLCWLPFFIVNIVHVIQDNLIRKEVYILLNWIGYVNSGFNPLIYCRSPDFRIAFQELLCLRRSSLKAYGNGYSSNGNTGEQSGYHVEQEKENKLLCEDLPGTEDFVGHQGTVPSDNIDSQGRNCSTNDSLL
Chain of Beta-1 adrenergic receptor (P08588 whole entry): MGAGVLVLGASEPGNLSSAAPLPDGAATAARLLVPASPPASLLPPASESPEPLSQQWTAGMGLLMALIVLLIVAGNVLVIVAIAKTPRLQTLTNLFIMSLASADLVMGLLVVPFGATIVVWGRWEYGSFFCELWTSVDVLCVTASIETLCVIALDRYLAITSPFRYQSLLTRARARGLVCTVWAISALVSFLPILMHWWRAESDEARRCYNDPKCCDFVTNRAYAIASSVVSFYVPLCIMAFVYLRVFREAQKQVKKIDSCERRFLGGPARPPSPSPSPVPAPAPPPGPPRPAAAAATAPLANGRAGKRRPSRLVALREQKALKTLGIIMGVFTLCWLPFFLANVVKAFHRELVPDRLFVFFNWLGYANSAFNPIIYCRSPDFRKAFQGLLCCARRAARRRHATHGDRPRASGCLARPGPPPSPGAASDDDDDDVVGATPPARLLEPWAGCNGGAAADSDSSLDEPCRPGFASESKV

One may read the pIC50 as −log10 of the IC50, conventionally taken in molar units. The pEC50 is −log10 of the EC50, conventionally taken in molar units. Regarding `O=S(=O)(Nc1ccc(CCNC[C@H](O)c2cccnc2)cc1)c1ccc(-c2noc(CCOC3CCCC3)n2)cc1`, the pIC50 in data set [1] was 5.57; in data set [3] it was 5.08. In [2], this compound had a pEC50 of 7.89. Further, the Activation in data set [4] came to 70%.
In the case of `CCCCCCc1nc(-c2ccc(S(=O)(=O)Nc3ccc(CCNC[C@H](O)c4cccnc4)cc3)cc2)no1`, the results for the pIC50 in data set [1] and in data set [3] were 6.00 and 5.70, respectively. The compound further gave a pEC50 in data set [2] of 7.46. The same compound gave an Activation in data set [4] of 79%.
Turning to `O=C(CCc1nc(-c2ccc(S(=O)(=O)Nc3ccc(CCNC[C@H](O)c4cccnc4)cc3)cc2)no1)N1CCCC1`, the pIC50 is 4.29 in data set [1] and 4.52 in data set [3]. For the same compound, the pEC50 in data set [2] is 6.92. Also, in data set [4], the Activation amounted to 49%.
Taken in the same sequence, the figures for `O=S(=O)(Nc1ccc(CCNC[C@H](O)c2cccnc2)cc1)c1ccc(-c2noc(CCCC3CCCC3)n2)cc1` were 6.02, 5.26, 7.82 and 83%.
`CCC(O)CCc1nc(-c2ccc(S(=O)(=O)Nc3ccc(CCNC[C@H](O)c4cccnc4)cc3)cc2)no1` (stereo not given in full): the figures for the pIC50 in data set [1] and in data set [3] were 4.62 and 4.25, respectively. The compound further had a pEC50 in [2] of 7.12. Besides, the Activation in [4] is 53%.
For `CC(C)CCCc1nc(-c2ccc(S(=O)(=O)Nc3ccc(CCNC[C@H](O)c4cccnc4)cc3)cc2)no1`, in that order: 6.00, 4.59, 7.54 and 58%.
Regarding `CCC(=O)CCc1nc(-c2ccc(S(=O)(=O)Nc3ccc(CCNC[C@H](O)c4cccnc4)cc3)cc2)no1`, the negative-log IC50 (pIC50) in data set [1] was 4.92; in [3] it was 4.60. This compound also gave a negative logarithm of the EC50 (pEC50) in data set [2] of 7.18. In addition, the Activation in data set [4] was 75%.
As to `CC(=O)CCCc1nc(-c2ccc(S(=O)(=O)Nc3ccc(CCNC[C@H](O)c4cccnc4)cc3)cc2)no1`, the pIC50 in [1] is 4.24; in [3], 4.15. The compound also had a pEC50 in data set [2] of 6.89. Besides, the Activation in data set [4] worked out at 69%.
In the case of `Cc1nc(-c2ccc(S(=O)(=O)Nc3ccc(CCNC[C@H](O)c4cccnc4)cc3)cc2)no1`, the pIC50 in data set [1] and in [3] was 5.00 each time. For the same compound, in data set [2], the pEC50 is less than 7.00. This compound also came in with an Activation in [4] of 15%.
Regarding `CC(O)CCCc1nc(-c2ccc(S(=O)(=O)Nc3ccc(CCNC[C@H](O)c4cccnc4)cc3)cc2)no1` (stereo not given in full), the pIC50 is 4.36 in data set [1] and 5.00 in data set [3]. Moreover, the pEC50 in data set [2] is less than 7.00. The compound further registered an Activation in data set [4] of 20%.
Taken in the same sequence, the figures for `CCCCCCCCc1nc(-c2ccc(S(=O)(=O)Nc3ccc(CCNC[C@H](O)c4cccnc4)cc3)cc2)no1` were 5.60, 5.05, 7.27 and 90%.
Take `O=S(=O)(Nc1ccc(CCNC[C@H](O)c2cccnc2)cc1)c1ccc(-c2noc(CCCC3CCCCC3)n2)cc1`: the pIC50 in data set [1] was 6.18; in data set [3] it was 5.71. This compound also had a pEC50 in data set [2] of 7.72. Also, the Activation in data set [4] was 62%.
For the compound `CCCCc1nc(-c2ccc(S(=O)(=O)Nc3ccc(CCNC[C@H](O)c4cccnc4)cc3)cc2)no1`, the pIC50 in data set [1] was 5.19; in [3], 4.26. In data set [2], this compound had a negative logarithm of the EC50 (pEC50) of 7.49. The compound also returned an Activation in data set [4] of 86%.
Taken in the same sequence, the figures for `CCCCCCCc1nc(-c2ccc(S(=O)(=O)Nc3ccc(CCNC[C@H](O)c4cccnc4)cc3)cc2)no1` were 5.85, 5.70, 7.41 and 86%.
As a reminder, the half-life is the time in which the quantity being followed falls by half. By bioavailability is commonly meant dose-corrected exposure relative to a reference, in per cent. What is called ED50 is the midpoint of the dose-response relation. In the case of `CCCCCc1nc(-c2ccc(S(=O)(=O)Nc3ccc(CCNC[C@H](O)c4cccnc4)cc3)cc2)no1`, the half-life in data set [5] was 2.4 h; in [10], 3.6 h. Moreover, the figures for the pIC50 in data set [1] and in data set [3] were 5.52 and 5.26, respectively. For the same compound, the pEC50 in [2] was 7.64. For the same compound, the bioavailability in [6] stood at 62%; in [8], 36%. Besides, the Activation in data set [4] was determined as 53%. The result with Monkey [7] was inactive. This compound also displayed an ED50 in the data set on Monkey [9] of 0.22 mg/kg.
As to `CCCc1nc(-c2ccc(S(=O)(=O)Nc3ccc(CCNC[C@H](O)c4cccnc4)cc3)cc2)no1`, the pIC50 in [1] and in [3] was 5.07 in each case. The compound further gave a pEC50 in data set [2] of 7.06. This compound returned an Activation in data set [4] of 70%.
